SMILES strings stand for the structures. Where only a bound is given, the exact number is not on record here.

One data set concerns NCI-H1792 cells. Put plainly: Cell viability IC50 (MTT), AMG510-resistant NCI-H1792 cells. Format: cell-based. The conditions noted are these: Homo sapiens, NCI-H1792 cells (KRAS G12C). The protocol: Non-small cell lung cancer cell lines NCI-H1975, NCI-H1650, and NCI-H1792 were cultured in RPMI-1640 medium containing 10% fetal bovine serum and 1% penicillin-streptomycin. 1% sodium pyruvate was additionally added when culturing NCI-H1975 cells. All the cells were cultured in a constant temperature incubator containing 5% CO2 at 37° C.
(1) The cells were cultured to the logarithmic growth phase. When the confluence reached about 90%, the cells were digested with 0.25% trypsin, and complete medium was added to collect the cells. After centrifugation at room temperature, the supernatant was discarded, and the cell precipitate was resuspended with fresh complete medium. […]
(5) The medium was carefully aspirated off, 100 μl of DMSO was added to dissolve the precipitate formed by the reaction with MTT, shaking and mixing to mix the blue-violet crystals well, and the light absorbance value at 492 nm was read with a microplate reader.
(6) IC50 of the compounds for different cells was calculated based on the light absorption value of each group. Specifically, the absorbance value under treatment with different concentrations of compounds was first subtracted from the absorbance value of the blank well, and then the absorbance value of the 0 μM group was taken as 100% to calculate the cell survival rate after treatment with different concentrations of compounds. […]

For the next data set, the system named is PE052 primary cells. Put plainly: Cell viability IC50 (CCK-8), primary cells PE052 from small cell lung cancer pleural effusion. Type of data set: cell-based. Particulars: PE052, CCK-8. The protocol: (§1) (1) The pleural effusion was poured into a 15 mL or 50 mL of sterilized centrifuge tube for centrifugation. Centrifugation conditions: 800 to 1000 rpm, 5 min.
(§2) (2) The precipitate was resuspended and washed for 2 to 3 times with PBS.
(§3) (3) The cell precipitate was resuspended with complete culture medium (α-MEM medium containing 10% fetal bovine serum and 2% penicillin-streptomycin), and the flocculent matter in the pleural effusion was removed using a sterilized cell sieve.
(§4) (4) The red blood cells in the pleural effusion were removed with lymphocyte separation fluid, and the tumor cells and lymphocyte components were collected. The number of tumor cells was observed under a microscope, and the cells were inoculated.
(§5) (5) After 24 hours, the supernatant was discarded, and fresh culture medium was added for further culture.
(§6) (6) The cell growth status was observed, and it was determined based on the cell status whether the medium was required to be continuously changed to remove blood cells. When the cells grew to a density of 80% to 90%, the cells were preserved.
(§7) (1) Primary cells from lung cancer pleural effusion within 5 generations were cultured to the logarithmic growth phase. […] After centrifugation at room temperature, the supernatant was discarded, and the cell precipitate was resuspended with fresh complete culture medium. After counting, the cells were placed at room temperature for later use. The cells were inoculated into a 384-well plate at a density of 2000 cells/well with a volume of 40 μl/well. The wells at the outermost circle of the plate were not inoculated with cells, and instead, added with sterile water to reduce evaporation of the culture medium.
(§8) (2) After overnight culture of the cells, the medium was discarded, and a fresh medium containing different concentrations of compounds was added at 200 μl/well. The dilution method of the compound was as follows: first the compound with the highest concentration of 10 μM was prepared, and then the compound was diluted for 3 times in sequence. […] At the same time, a blank control group was set up, in which only an equal volume of culture medium was added without adding cells. Five replicate wells were set up for each group. The cells were placed in the incubator for further culture.
(§9) (3) After 72 hours, 8 μl of CCK-8 solution, which was double-diluted with 10 mM PBS, was added to each well, and the cells were shaken and placed in an incubator at 37° C. for further culture for 2 hours.
(§10) (4) The light absorbance value at 450 nm was read using a microplate reader, and the IC50 was calculated according to the absorbance value. The calculation method was the same as above.
(§11) (1) Sample information: PE039, PE052, and PE062 were all primary cell samples from pleural effusion of patients with small cell lung cancer, and LT015 was a primary cell sample from bronchoscopic biopsy of a patient with small cell lung cancer.
(§12) (2) CCK-8 detection was used to detect the IC50 values of different medicaments (compounds).

The test system of the next data set is PE062 primary cells. Put plainly: Cell viability IC50 (CCK-8), primary cells PE062 from small cell lung cancer pleural effusion. Type of data set: cell-based. The conditions noted are these: PE062, CCK-8. The method, then:
as §1, §2, §3, §4, §5, §6, §7, §8, §9, §10, §11, §12

A further data set relates to NCI-H82 cells. Put plainly: Cell viability IC50 (CCK-8), small cell lung cancer cell line H82. The conditions noted are these: H82, CCK-8. Format: cell-based. The protocol: (§13) Small cell lung cancer cell lines DMS114, NCI-H1688, NCI-H82, NCI-H146, and NCI-H446 cells were cultured in RPMI-1640 medium containing 10% fetal bovine serum and 1% penicillin-streptomycin. All the cells were cultured in a constant temperature incubator containing 5% CO2 at 37° C.
(§14) Small cell lung cancer is a highly heterogeneous malignant tumor, and its clinical treatment is mainly based on traditional chemotherapy (mainly platinum medicaments and etoposide). In order to study the anti-tumor activity of the compounds of the present disclosure in small cell lung cancer, the CCK-8 method was used to investigate the cell viability IC50 of compound 8 for five small cell lung cancer cell lines.

Another data set concerns LT015 primary cells. Put plainly: Cell viability IC50 (CCK-8), primary cells LT015 from small cell lung cancer bronchoscopic biopsy. Format: cell-based. The conditions noted are these: LT015, CCK-8. The protocol: (1) The tissue blocks obtained from the tumor patients were transferred from the preservation solution to the pre-cooled HBSS buffer containing antibiotics, and the tissue blocks were washed for three times with the pre-cooled HBSS buffer.
(2) Tissue was sheared on ice with sterile surgical instruments until no obvious tissue blocks are visible to the naked eye, the tissue fluid was collected into a 15 ml centrifuge tube, and this process takes about 5 to 10 minutes.
(3) Digestive enzymes (collagenase I, collagenase IV and neutral protease being mixed in a ratio of 1:1:1, a concentration of stock solution was 10 mg/ml, diluted with PBS buffer or HBSS buffer, and the use concentration was 1 mg/ml) were added to the centrifuge tube, and after mixing well by pipetting, the centrifuge tube was placed in a 37° C. constant temperature incubator for 1 to 2 hours.
(4) High-glucose medium was added to the centrifuge tube to stop digestion. After mixing well, the cell precipitate was collected by centrifugation, and resuspended with MBM medium (Advanced DMEM-F12+20 ng/ml bFGF+50 ng/ml EGF+1% ITS-X+2% B27+10 μMY-27632+1% PS). The cell suspension was placed in a Matrigel-coated 24-well plate and cultured for 5 to 7 days. When the cell density in the well plate reaches 80-90%, the cells were sub-cultured into a 6 cm cell culture dish, and when they grew to a density of 80% to 90%, the cells were cryopreserved for preservation.
(1) Primary cells from lung cancer pleural effusion within 5 generations were cultured to the logarithmic growth phase. When the confluence reached about 90%, the cells were digested with 0.25% trypsin, and complete culture medium was added to collect the cells. After centrifugation at room temperature, the supernatant was discarded, and the cell precipitate was resuspended with fresh complete culture medium. After counting, the cells were placed at room temperature for later use. The cells were inoculated into a 384-well plate at a density of 2000 cells/well with a volume of 40 μl/well. The wells at the outermost circle of the plate were not inoculated with cells, and instead, added with sterile water to reduce evaporation of the culture medium.
as §8, §9, §10, §11, §12

A further data set concerns NCI-H1688 cells. Put plainly: Cell viability IC50 (CCK-8), small cell lung cancer cell line H1688. Format: cell-based. The conditions noted are these: H1688, CCK-8. The method, then:
as §13, §14

In another data set the test system is PE039 primary cells. The data set can be described thus: Cell viability IC50 (CCK-8), primary cells PE039 from small cell lung cancer pleural effusion. Particulars: PE039, CCK-8. Format: cell-based. The protocol:
as §1, §2, §3, §4, §5, §6, §7, §8, §9
(4) The light absorbance value at 450 nm was read using a microplate reader, and the IC50 was calculated according to the absorbance value. The calculation method was the same as above. […]

A further data set has as its system NCI-H146 cells. Put plainly: Cell viability IC50 (CCK-8), small cell lung cancer cell line H146. Type of data set: cell-based. The conditions noted are these: H146, CCK-8. The protocol:
as §13, §14

A further data set relates to NCI-H446 cells. Put plainly: Cell viability IC50 (CCK-8), small cell lung cancer cell line H446. Particulars: H446, CCK-8. Format: cell-based. The protocol: as §13, §14
The test system of the next data set is DMS114 cells. The data set can be described thus: Cell viability IC50 (CCK-8), small cell lung cancer cell line DMS114. Format: cell-based. Particulars: DMS114, CCK-8. The method, then: as §13, §14
The next data set concerns PE043 primary cells. The data set can be described thus: Cell viability IC50 (CCK-8), primary cells PE043 from lung adenocarcinoma pleural effusion resistant to EGFR-TKI. Particulars: read-out: cell viability IC50; PE043, CCK-8.
Data set [1] has as its system small cell lung cancer cell line H446 cells. Put plainly: In vivo antitumor effect in mice bearing small cell lung cancer cell line H446 cells (CDX model).
Description: H446 cells in the logarithmic growth phase were suspended in PBS solution, and then inoculated subcutaneously in the right forelimb of nude mice. The cell density was about 2×10^8 cells/mL, and each mouse was inoculated with 0.1 mL of the cell suspension, for a total of 80 mice. When the subcutaneous tumor grew to range from 50 mm^3 to 100 mm^3, 40 tumor-bearing mice were randomly divided into groups and numbered, and drug administration began.
(1) Vehicle blank control group: 5% DMSO+20% PEG 300+75% saline (normal saline);
The cycle repeated twice, and no medication for the final 6 days.
All tumor-bearing mice were killed after 20 days.

For the compound `C=CC(=O)N1CCN(c2nc(=O)n(-c3c(C)ccnc3C(C)C)c3nc(-c4c(O)cccc4F)c(F)cc23)[C@@H](C)C1` [AMG510], the IC50 in the data set on NCI-H1792 cells, in the data set on PE052 primary cells and in the data set with PE062 primary cells was more than 10000 nM each time.
Consider `N.N.[Cl][Pt][Cl]` [Cisplatin], for which the IC50 came out at 1760 nM in the data set on NCI-H82 cells; 5460 nM in the data set with LT015 primary cells; 14100 nM in the data set on NCI-H1688 cells; 11100 nM with PE039 primary cells; 3890 nM with NCI-H146 cells; 559 nM with NCI-H446 cells. Besides, the IC50 in the data set on DMS114 cells was determined as 2150 nM; in the data set with PE052 primary cells it was 885 nM; in the data set on PE062 primary cells it was 3210 nM; in the data set with PE043 primary cells it was 31000 nM.
For `CN1CCN(Cc2ccc(Nc3ncc(Cl)c(Nc4ccccc4S(=O)(=O)N(C)C)n3)cc2)CC1` [TP-0903], the IC50 stood at 35 nM with NCI-H82 cells (Homo sapiens, NCI-H82); 94.3 nM with LT015 primary cells; 534 nM in the data set on NCI-H1688 cells (NCI-H1688); 134 nM with PE039 primary cells; 1540 nM in the data set with NCI-H146 cells (Homo sapiens, NCI-H146); 276 nM with NCI-H446 cells (Homo sapiens, NCI-H446). Further, the IC50 with DMS114 cells (Homo sapiens, DMS-114) was 95.1 nM; in the data set on PE052 primary cells, 210 nM; in the data set on PE062 primary cells, 5.1 nM. In addition, the “inhibitory effect on tumor volume growth compared with blank control (FIG. 1)” value in [1] (H446 CDX nude mice, intraperitoneal injection, 20 days) is reported as “no significant inhibitory effect on tumor volume growth”. Also, the animals survived in [1] (H446 CDX nude mice, intraperitoneal injection, 20 days, compound 8 and TP-0903 15 mg/kg once a day for 13 days, Cisplatin 2.5 mg/kg + Etoposide 4 mg/kg cycles) is 11 of 12. The “body weight changes of nude mice (FIG. 2)” value in [1] (during the drug administration period, recovered rapidly after drug withdrawal) is listed as “no significant decrease in body weight”.
